According to patent US20240158446A1, “CYCLIC COMPOUND HAVING SELECTIVE INHIBITORY ACTION ON KRAS OVER HRAS AND NRAS” (CHUGAI SEIYAKU KABUSHIKI KAISHA, priority 2021, published 2024):

Experiments:
[1] = target: GDP-bound NRAS wild-type protein (Homo sapiens, UniProt P01111); assay: Binding to NRAS by surface plasmon resonance (SPR), Single Cycle Kinetics; conditions: SPR KD ratio NRAS/KRAS, class symbols
[2] = tested on: human lung cancer strain NCI-H441;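 also: cell proliferation inhibition after four days measured by CellTiter-Glo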
[3] = target: GDP-bound HRAS wild-type protein (Homo sapiens, UniProt P01112); assay: Binding to HRAS by surface plasmon resonance (SPR), Single Cycle Kinetics; conditions: SPR KD ratio HRAS/KRAS, class symbols
Chain of GDP-bound HRAS wild-type protein (P01112 whole entry): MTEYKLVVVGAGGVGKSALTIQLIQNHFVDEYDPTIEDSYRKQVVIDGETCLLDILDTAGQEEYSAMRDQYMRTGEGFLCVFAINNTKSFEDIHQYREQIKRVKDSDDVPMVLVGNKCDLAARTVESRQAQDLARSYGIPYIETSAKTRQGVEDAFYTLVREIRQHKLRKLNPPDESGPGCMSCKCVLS

[4] = target: GDP-bound KRAS wild-type protein (Homo sapiens, UniProt P01116); assay: Binding to KRAS by surface plasmon resonance (SPR), Single Cycle Kinetics; conditions: SPR Single Cycle Kinetics, GDP-bound KRAS wild-type protein, 1:1 binding model; read-out: KRAS KD
Chain of GDP-bound KRAS wild-type protein (P01116 whole entry): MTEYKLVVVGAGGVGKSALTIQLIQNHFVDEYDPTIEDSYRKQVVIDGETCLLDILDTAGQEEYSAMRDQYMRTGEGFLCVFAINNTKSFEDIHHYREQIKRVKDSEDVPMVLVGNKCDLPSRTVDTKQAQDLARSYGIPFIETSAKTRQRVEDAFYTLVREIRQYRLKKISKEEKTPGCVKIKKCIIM

Chain of GDP-bound NRAS wild-type protein (P01111 whole entry): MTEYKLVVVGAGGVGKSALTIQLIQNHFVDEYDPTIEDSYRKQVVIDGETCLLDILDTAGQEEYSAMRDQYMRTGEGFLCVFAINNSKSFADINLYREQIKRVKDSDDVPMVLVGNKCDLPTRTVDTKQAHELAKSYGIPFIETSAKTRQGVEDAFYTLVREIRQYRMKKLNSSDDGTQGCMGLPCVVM

SMILES | IC50 [2] [nM] | Kd [4] [nM] | NRAS/KRAS (ratio of KD value with respect to GDP-bound NRAS wild-type protein to KD value with respect to KRAS) [1] | HRAS/KRAS (ratio of KD value with respect to GDP-bound HRAS wild-type protein to KD value with respect to KRAS) [3]
CCC[C@H]1C(=O)N[C@@H]([C@@H](C)CC)C(=O)N(C)CC(=O)N(C)[C@H]2C/C=C\CCN(C2=O)[C@@H](Cc2ccc(C)cc2)C(=O)N(C)CC(=O)N[C@@H](CCc2ccc(Cl)c(Cl)c2)C(=O)N2C[C@H](OCC)C[C@H]2C(=O)NC2(CC(C)(C)C2)C(=O)N(C)[C@@H](CC(C)(C)C)C(=O)N(C)[C@H](C(=O)N(C)C)CC(=O)N1C [PP2714] | 13.2 | 0.25 | A (a compound having 10 or more and less than 20 is denoted as A) | A (a compound having 10 or more and less than 20 is denoted as A)
CCCOC[C@H]1C(=O)N[C@@H]([C@@H](C)CC)C(=O)N(C)CC(=O)N(C)[C@H]2C/C=C\CCN(C2=O)[C@@H](Cc2ccc(C)cc2)C(=O)N(C)CC(=O)N[C@@H](CCc2ccc(Cl)c(Cl)c2)C(=O)N2C[C@H](OCC)C[C@H]2C(=O)NC2(CC(C)(C)C2)C(=O)N(C)[C@@H](CC(C)(C)C)C(=O)N(C)[C@H](C(=O)N(C)C)CC(=O)N1C [PP2716] | 13.8 | 0.34 | A (a compound having 10 or more and less than 20 is denoted as A) | A (a compound having 10 or more and less than 20 is denoted as A)
CCOC[C@H]1C(=O)N[C@@H]([C@@H](C)CC)C(=O)N(C2CC2)CC(=O)N(C)[C@H]2C/C=C\CCN(C2=O)[C@@H](Cc2ccc(C)cc2)C(=O)N(C)CC(=O)N[C@@H](CCc2ccc(Cl)c(Cl)c2)C(=O)N2C[C@H](OCC)C[C@H]2C(=O)NC2(CC(C)(C)C2)C(=O)N(C)[C@@H](CC(C)(C)C)C(=O)N(C)[C@H](C(=O)N(C)C)CC(=O)N1C [PP2728] | 54.3 | 1.1 | AA (a compound having 20 or more is denoted as AA) | A (a compound having 10 or more and less than 20 is denoted as A)
CCC[C@H]1C(=O)N[C@@H]([C@@H](C)CC)C(=O)N(C)CC(=O)N(C)[C@H]2C/C=C\CCN(C2=O)[C@@H](Cc2ccc(C(F)(F)F)cc2)C(=O)N(C)CC(=O)N[C@@H](CCc2ccc(C(F)(F)F)c(OC)c2)C(=O)N2C[C@H](OCC)C[C@H]2C(=O)NC2(CC(C)(C)C2)C(=O)N(C)[C@@H](CC(C)(C)C)C(=O)N(C)[C@H](C(=O)N(C)C)CC(=O)N1C [PP2734] | 3.1 | 0.1 | A (a compound having 10 or more and less than 20 is denoted as A) | B (a compound having 3 or more and less than 10 is denoted as B)
CCOC[C@H]1C(=O)N[C@@H]([C@@H](C)CC)C(=O)N(C)CC(=O)N(C)[C@H]2C/C=C\CCN(C2=O)[C@@H](Cc2ccc(C(F)(F)F)cc2)C(=O)N(C)CC(=O)N[C@@H](CCc2ccc(C(F)(F)F)c(OC)c2)C(=O)N2C[C@H](OCC)C[C@H]2C(=O)NC2(CC(C)(C)C2)C(=O)N(C)[C@@H](CC(C)(C)C)C(=O)N(C)[C@H](C(=O)N(C)C)CC(=O)N1C [PP2736] | 7.5 | 0.061 | A (a compound having 10 or more and less than 20 is denoted as A) | A (a compound having 10 or more and less than 20 is denoted as A)
CCC[C@H]1C(=O)N[C@@H]([C@@H](C)CC)C(=O)N(C)CC(=O)N(C)[C@H]2C/C=C\CCN(C2=O)[C@@H](Cc2ccc(C(F)(F)F)cc2)C(=O)N(C)CC(=O)N[C@@H](CCc2ccc(Cl)c(Cl)c2)C(=O)N2C[C@H](OCC)C[C@H]2C(=O)NC2(CC(C)(C)C2)C(=O)N(C)[C@@H](CC(C)(C)C)C(=O)N(C)[C@H](C(=O)N(C)C)CC(=O)N1C [PP2738] | 8.5 | 0.17 | AA (a compound having 20 or more is denoted as AA) | A (a compound having 10 or more and less than 20 is denoted as A)
CCOC[C@H]1C(=O)N[C@@H]([C@@H](C)CC)C(=O)N(C)CC(=O)N(C)[C@H]2C/C=C\CCN(C2=O)[C@@H](Cc2ccc(C(F)(F)F)cc2)C(=O)N(C)CC(=O)N[C@@H](CCc2ccc(Cl)c(Cl)c2)C(=O)N2C[C@H](OCC)C[C@H]2C(=O)NC2(CC(C)(C)C2)C(=O)N(C)[C@@H](CC(C)(C)C)C(=O)N(C)[C@H](C(=O)N(C)C)CC(=O)N1C [PP2740] | 24.2 | 0.17 | AA (a compound having 20 or more is denoted as AA) | A (a compound having 10 or more and less than 20 is denoted as A)

Second part, led by results:

IC50 [2] [nM] | Kd [4] [nM] | SMILES | NRAS/KRAS (ratio of KD value with respect to GDP-bound NRAS wild-type protein to KD value with respect to KRAS) [1] | HRAS/KRAS (ratio of KD value with respect to GDP-bound HRAS wild-type protein to KD value with respect to KRAS) [3]
7.6 | 0.33 | CCC[C@H]1C(=O)N[C@@H]([C@@H](C)CC)C(=O)N(C2CC2)CC(=O)N(C)[C@H]2C/C=C\CCN(C2=O)[C@@H](Cc2ccc(C)cc2)C(=O)N(C)CC(=O)N[C@@H](CCc2cc(F)c(C(F)(F)F)c(F)c2)C(=O)N2C[C@H](OCC)C[C@H]2C(=O)NC2(CC(C)(C)C2)C(=O)N(C)[C@@H](CC(C)(C)C)C(=O)N(C)[C@H](C(=O)N(C)C)CC(=O)N1C [PP2718] | A (a compound having 10 or more and less than 20 is denoted as A) | A (a compound having 10 or more and less than 20 is denoted as A)
7.7 | 0.35 | CCOC[C@H]1C(=O)N[C@@H]([C@@H](C)CC)C(=O)N(C2CC2)CC(=O)N(C)[C@H]2C/C=C\CCN(C2=O)[C@@H](Cc2ccc(C)cc2)C(=O)N(C)CC(=O)N[C@@H](CCc2cc(F)c(C(F)(F)F)c(F)c2)C(=O)N2C[C@H](OCC)C[C@H]2C(=O)NC2(CC(C)(C)C2)C(=O)N(C)[C@@H](CC(C)(C)C)C(=O)N(C)[C@H](C(=O)N(C)C)CC(=O)N1C [PP2720] | A (a compound having 10 or more and less than 20 is denoted as A) | A (a compound having 10 or more and less than 20 is denoted as A)
13.9 | 0.4 | CCC[C@H]1C(=O)N[C@@H]([C@@H](C)CC)C(=O)N(C2CC2)CC(=O)N(C)[C@H]2C/C=C\CCN(C2=O)[C@@H](Cc2ccc(C)cc2)C(=O)N(C)CC(=O)N[C@@H](CCc2ccc(C(F)(F)F)c(OC)c2)C(=O)N2C[C@H](OCC)C[C@H]2C(=O)NC2(CC(C)(C)C2)C(=O)N(C)[C@@H](CC(C)(C)C)C(=O)N(C)[C@H](C(=O)N(C)C)CC(=O)N1C [PP2722] | B (a compound having 3 or more and less than 10 is denoted as B) | B (a compound having 3 or more and less than 10 is denoted as B)
20 | 0.43 | CCOC[C@H]1C(=O)N[C@@H]([C@@H](C)CC)C(=O)N(C2CC2)CC(=O)N(C)[C@H]2C/C=C\CCN(C2=O)[C@@H](Cc2ccc(C)cc2)C(=O)N(C)CC(=O)N[C@@H](CCc2ccc(C(F)(F)F)c(OC)c2)C(=O)N2C[C@H](OCC)C[C@H]2C(=O)NC2(CC(C)(C)C2)C(=O)N(C)[C@@H](CC(C)(C)C)C(=O)N(C)[C@H](C(=O)N(C)C)CC(=O)N1C [PP2724] | A (a compound having 10 or more and less than 20 is denoted as A) | B (a compound having 3 or more and less than 10 is denoted as B)
51 | 1.1 | CCC[C@H]1C(=O)N[C@@H]([C@@H](C)CC)C(=O)N(C2CC2)CC(=O)N(C)[C@H]2C/C=C\CCN(C2=O)[C@@H](Cc2ccc(C)cc2)C(=O)N(C)CC(=O)N[C@@H](CCc2ccc(Cl)c(Cl)c2)C(=O)N2C[C@H](OCC)C[C@H]2C(=O)NC2(CC(C)(C)C2)C(=O)N(C)[C@@H](CC(C)(C)C)C(=O)N(C)[C@H](C(=O)N(C)C)CC(=O)N1C [PP2726] | AA (a compound having 20 or more is denoted as AA) | A (a compound having 10 or more and less than 20 is denoted as A)
5.3 | 0.067 | CCOC[C@H]1C(=O)N[C@@H]([C@@H](C)CC)C(=O)N(C)CC(=O)N(C)[C@H]2C/C=C\CCN(C2=O)[C@@H](Cc2ccc(C(F)(F)F)cc2)C(=O)N(C)CC(=O)N[C@@H](CCc2cc(F)c(C(F)(F)F)c(F)c2)C(=O)N2C[C@H](OCC)C[C@H]2C(=O)NC2(CC(C)(C)C2)C(=O)N(C)[C@@H](CC(C)(C)C)C(=O)N(C)[C@H](C(=O)N(C)C)CC(=O)N1C [PP2732] | A (a compound having 10 or more and less than 20 is denoted as A) | A (a compound having 10 or more and less than 20 is denoted as A)
10.7 | 0.23 | CCO[C@@H]1C[C@H]2C(=O)NC3(CC(C)(C)C3)C(=O)N(C)[C@@H](CC(C)(C)C)C(=O)N(C)[C@H](C(=O)N(C)C)CC(=O)N(C)[C@@H](COC)C(=O)N[C@@H]([C@@H](C)CC)C(=O)N(C3CC3)CC(=O)N(C)[C@H]3C/C=C\CCN(C3=O)[C@@H](Cc3ccc(C(F)(F)F)cc3)C(=O)N(C)CC(=O)N[C@@H](CCc3cc(F)c(C(F)(F)F)c(F)c3)C(=O)N2C1 [PP2744] | A (a compound having 10 or more and less than 20 is denoted as A) | A (a compound having 10 or more and less than 20 is denoted as A)
